ChEMBL document CHEMBL1124789, “Angiotensin-converting enzyme inhibitors. 9. Novel [[N-(1-carboxy-3-phenylpropyl)amino]acyl]glycine derivatives with diuretic activity” (J Med Chem, 1990)

Experiments:
[1] = species on record: Rattus norvegicus; assay: Duration of action on ACE in rat; format: functional
[2] = molecular target: T1, Angiotensin-converting enzyme (Rattus norvegicus, UniProt P47820); assay: In vitro inhibitory activity against Angiotensin I converting enzyme(ACE)
T1 sequence (P47820 whole entry): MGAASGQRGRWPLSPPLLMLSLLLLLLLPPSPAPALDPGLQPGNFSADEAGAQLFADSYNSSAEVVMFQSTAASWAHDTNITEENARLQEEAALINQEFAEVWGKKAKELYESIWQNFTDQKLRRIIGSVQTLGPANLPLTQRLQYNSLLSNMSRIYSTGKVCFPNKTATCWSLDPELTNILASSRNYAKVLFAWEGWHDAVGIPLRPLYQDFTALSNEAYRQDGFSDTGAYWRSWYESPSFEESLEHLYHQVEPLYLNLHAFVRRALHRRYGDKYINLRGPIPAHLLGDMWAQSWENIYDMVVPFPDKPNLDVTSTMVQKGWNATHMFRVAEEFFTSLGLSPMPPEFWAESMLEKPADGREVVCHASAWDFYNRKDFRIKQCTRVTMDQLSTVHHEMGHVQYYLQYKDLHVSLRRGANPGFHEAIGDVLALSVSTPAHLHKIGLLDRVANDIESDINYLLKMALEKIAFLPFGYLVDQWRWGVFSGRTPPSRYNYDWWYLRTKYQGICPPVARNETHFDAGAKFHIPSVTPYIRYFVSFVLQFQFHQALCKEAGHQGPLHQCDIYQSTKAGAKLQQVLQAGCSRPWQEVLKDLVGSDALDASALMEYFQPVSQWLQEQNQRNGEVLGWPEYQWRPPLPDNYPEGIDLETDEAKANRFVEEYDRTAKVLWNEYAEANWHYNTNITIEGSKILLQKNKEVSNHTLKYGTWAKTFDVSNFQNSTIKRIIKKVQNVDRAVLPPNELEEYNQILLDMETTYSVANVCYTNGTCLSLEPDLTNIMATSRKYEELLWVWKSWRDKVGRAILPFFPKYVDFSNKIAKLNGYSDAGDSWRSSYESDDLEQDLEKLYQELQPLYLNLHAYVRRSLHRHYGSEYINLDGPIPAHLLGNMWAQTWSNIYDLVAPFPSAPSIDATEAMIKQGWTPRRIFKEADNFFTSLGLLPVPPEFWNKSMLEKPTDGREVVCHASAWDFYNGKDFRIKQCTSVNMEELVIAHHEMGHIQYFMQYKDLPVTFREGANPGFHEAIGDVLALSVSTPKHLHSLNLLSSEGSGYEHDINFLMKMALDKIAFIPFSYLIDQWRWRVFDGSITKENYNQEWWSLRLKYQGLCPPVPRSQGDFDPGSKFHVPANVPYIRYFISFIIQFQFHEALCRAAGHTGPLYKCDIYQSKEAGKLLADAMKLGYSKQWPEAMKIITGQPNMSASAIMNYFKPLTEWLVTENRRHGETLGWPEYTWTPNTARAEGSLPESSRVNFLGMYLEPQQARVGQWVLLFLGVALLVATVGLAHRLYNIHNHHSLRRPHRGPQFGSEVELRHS

[3] = molecular target: T2, Angiotensin-converting enzyme (Rattus norvegicus) (UniProt P47820); assay: Inhibition of Angiotensin I converting enzyme(ACE) at the dose of 30 mg/kg (po) in rat; format: organism-based; parameters: dose 30 mg/kg
T2 sequence (whole entry): T1 sequence (P47820 whole entry)

[4] = molecular target: T2, Angiotensin-converting enzyme (Rattus norvegicus); assay: Inhibition of Angiotensin I converting enzyme(ACE) at the dose of 100 mg/kg (po) in rat; format: organism-based; parameters: dose 100 mg/kg
[5] = molecular target: T2, Angiotensin-converting enzyme (Rattus norvegicus); assay: Inhibition of Angiotensin I converting enzyme(ACE) at the dose of 100 mg/kg (ip) in rat; format: organism-based; parameters: dose 100 mg/kg
[6] = test system: Rattus norvegicus; assay: Diuretic activity (ip);NI- No increase; format: functional, organism-based; details: Urine
[7] = test system: Canis familiaris; assay: Diuretic activity (po) in dog; ND- Natriuresis and diuresis; format: functional, organism-based; details: Canis lupus familiaris; Urine
[8] = molecular target: T2, Angiotensin-converting enzyme (Rattus norvegicus); assay: Inhibition of Angiotensin I converting enzyme(ACE) at the dose of 10 mg/kg (po) in rat; format: organism-based; parameters: dose 10 mg/kg
[9] = test system: Canis familiaris; assay: Maximum percent decrease in blood pressure at the dose of 100 mg/kg ip; format: functional, Canis lupus familiaris; details: route intraperitoneal
[10] = molecular target: Angiotensin-converting enzyme (Homo sapiens) (UniProt P12821); assay: In vitro inhibitory activity against Angiotensin I converting enzyme(ACE) in dog; details: Canis lupus familiaris; target entry is the homologue from another species; concentration not given here
[11] = test system: Rattus norvegicus; assay: Diuretic activity (po); ND-Natriuresis&diuresis; format: functional, organism-based; details: Urine
[12] = molecular target: T1, Angiotensin-converting enzyme; assay: (§1) In vitro inhibitory activity against Angiotensin I converting enzyme (ACE)
[13] = test system: Rattus norvegicus; assay: Diuretic activity (ip);NI-No increase; format: functional, organism-based; details: Urine
[14] = test system: Rattus norvegicus; assay: Diuretic activity (ip);ND- Natriuresis and diuresis; format: functional, organism-based; details: Urine
[15] = molecular target: Angiotensin-converting enzyme (Homo sapiens) (UniProt P12821); assay: Inhibition of Angiotensin I converting enzyme(ACE) at the dose of 100 mg/kg (ip) in dog; format: organism-based; parameters: dose 100 mg/kg; details: Canis lupus familiaris; target entry is the homologue from another species
[16] = test system: Canis familiaris; assay: Diuretic activity (po) in dog; NI-No Increase; format: functional, organism-based; details: Canis lupus familiaris; Urine
[17] = test system: Rattus norvegicus; assay: Diuretic activity (po);ND- Natriuresis and diuresis; format: functional, organism-based; details: Urine
[18] = test system: Canis familiaris; assay: Diuretic activity (po) in dog; ND-Natriuresis&diuresis; format: functional, organism-based; details: Canis lupus familiaris; Urine
[19] = molecular target: T2, Angiotensin-converting enzyme (Rattus norvegicus); assay: Inhibition of Angiotensin I converting enzyme(ACE) at the dose of 30 mg/kg (ip) in rat; format: organism-based; parameters: dose 30 mg/kg; scale not given: the % may be the effect or the level left
[20] = test system: Rattus norvegicus; assay: Diuretic activity (po); NI-No Increase; format: functional, organism-based; details: Urine
[21] = molecular target: T2, Angiotensin-converting enzyme (Rattus norvegicus); assay: Inhibition of Angiotensin I converting enzyme(ACE) at the dose of 10 mg/kg (ip) in rat; format: organism-based; parameters: dose 10 mg/kg; scale not given: the % may be the effect or the level left
[22] = molecular target: T2, Angiotensin-converting enzyme (Rattus norvegicus); assay: as §1; details: concentration not given here
[23] = test system: Rattus norvegicus; assay: Diuretic activity (po);NI- No increase; format: functional, organism-based; details: Urine
[24] = test system: Rattus norvegicus; assay: Diuretic activity (po);NI-No increase; format: functional, organism-based; details: Urine

Chain of Angiotensin-converting enzyme (Homo sapiens) (P12821 whole entry): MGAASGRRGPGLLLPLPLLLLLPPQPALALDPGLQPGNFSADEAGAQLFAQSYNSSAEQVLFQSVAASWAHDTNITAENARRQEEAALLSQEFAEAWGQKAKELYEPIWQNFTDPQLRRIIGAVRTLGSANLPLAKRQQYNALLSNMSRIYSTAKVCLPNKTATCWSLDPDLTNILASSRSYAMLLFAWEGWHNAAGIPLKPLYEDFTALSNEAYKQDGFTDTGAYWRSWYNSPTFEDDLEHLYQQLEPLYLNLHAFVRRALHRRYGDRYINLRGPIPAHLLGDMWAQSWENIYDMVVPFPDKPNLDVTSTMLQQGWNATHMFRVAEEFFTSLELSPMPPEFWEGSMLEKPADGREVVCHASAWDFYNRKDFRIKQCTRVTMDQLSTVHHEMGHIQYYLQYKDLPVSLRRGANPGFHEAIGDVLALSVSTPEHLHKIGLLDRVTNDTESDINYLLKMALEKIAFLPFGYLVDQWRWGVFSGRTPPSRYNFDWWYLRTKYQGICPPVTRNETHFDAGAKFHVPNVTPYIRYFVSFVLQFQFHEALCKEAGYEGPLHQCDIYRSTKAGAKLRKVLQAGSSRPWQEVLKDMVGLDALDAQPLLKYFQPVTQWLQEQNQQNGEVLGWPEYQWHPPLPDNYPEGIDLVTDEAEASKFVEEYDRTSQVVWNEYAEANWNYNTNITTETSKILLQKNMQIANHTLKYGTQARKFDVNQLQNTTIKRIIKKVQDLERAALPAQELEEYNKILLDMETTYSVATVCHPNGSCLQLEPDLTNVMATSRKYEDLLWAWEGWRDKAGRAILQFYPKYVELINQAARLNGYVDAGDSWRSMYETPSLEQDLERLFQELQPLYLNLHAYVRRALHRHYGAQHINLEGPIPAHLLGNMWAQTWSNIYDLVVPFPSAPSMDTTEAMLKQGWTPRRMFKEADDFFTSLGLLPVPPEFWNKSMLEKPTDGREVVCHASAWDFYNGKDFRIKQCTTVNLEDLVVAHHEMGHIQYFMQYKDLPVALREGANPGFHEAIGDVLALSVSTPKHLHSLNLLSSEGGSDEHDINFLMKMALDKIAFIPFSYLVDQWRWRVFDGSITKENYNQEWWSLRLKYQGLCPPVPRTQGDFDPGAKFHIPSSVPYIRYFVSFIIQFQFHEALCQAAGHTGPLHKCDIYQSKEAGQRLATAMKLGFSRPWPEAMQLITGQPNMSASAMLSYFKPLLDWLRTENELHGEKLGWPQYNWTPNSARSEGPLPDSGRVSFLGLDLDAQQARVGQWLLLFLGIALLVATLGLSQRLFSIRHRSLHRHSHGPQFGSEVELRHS

| Structure (SMILES) | IC50 [2] [nM] | ACE inhibition [3] [%] | ACE inhibition [4] [%] | ACE inhibition [5] [%] | ACE inhibition [8] [%] | Duration [1] [h] | further results |
| --- | --- | --- | --- | --- | --- | --- | --- |
| C[C@H](N[C@@H](CCc1ccccc1)C(=O)O)C(=O)N(CC(=O)O)Cc1cc(C(C)(C)C)cc(I)c1O.Cl | 160 | – | – | 100 | – | 3 | Activity [6]: No increase |
| Cl.NCCCC[C@H](N[C@@H](CCc1ccccc1)C(=O)O)C(=O)N(CC(=O)O)CC1Nc2cc(Cl)c(S(N)(=O)=O)cc2S(=O)(=O)N1 (some centres undefined) | 220 | 80 | 100 | 100 | 80 | 3 | Activity [7]: Natriuresis and diuresis; Decrease [9]: 0%; inhibition [10]: 100%; Activity [11]: Natriuresis and diuresis |
| C[C@H](N[C@@H](CCc1ccccc1)C(=O)O)C(=O)N(CCCNC(=O)c1ccc(Cl)c(S(N)(=O)=O)c1)CC(=O)O | – | – | – | – | – | – | IC50 [12]: 38000 nM; Activity [13]: No increase |
| C[C@H](N[C@@H](CCc1ccccc1)C(=O)O)C(=O)N(CC(=O)O)CC1Nc2cc(Cl)c(S(N)(=O)=O)cc2S(=O)(=O)N1 (some centres undefined) | 38000 | 50 | 80 | 100 | 50 | >3 | inhibition [15]: 100%; Decrease [9]: 21%; Activity [11]: Natriuresis and diuresis; Activity [16]: No increase |
| C[C@H](N[C@@H](CCc1ccccc1)C(=O)O)C(=O)N(CCCC1Nc2cc(Cl)c(S(N)(=O)=O)cc2S(=O)(=O)N1)CC(=O)O.Cl (some centres undefined) | 230 | 50 | 100 | 100 | 50 | > 3 | inhibition [15]: > 100%; Decrease [9]: 14%; Activity [17]: Natriuresis and diuresis; Activity [18]: Natriuresis and diuresis |
| C[C@H](N[C@@H](CCc1ccccc1)C(=O)O)C(=O)N(CC(=O)O)C1CCC2(CC1)Nc1cc(Cl)c(S(N)(=O)=O)cc1S(=O)(=O)N2 (some centres undefined) | 3500 | – | 80 | – | – | 3 | – |
| CCOC(=O)[C@H](CCc1ccccc1)N[C@@H](C)C(=O)N(CC(=O)O)[C@H](CC(C)C)C1Nc2cc(Cl)c(S(N)(=O)=O)cc2S(=O)(=O)N1.Cl (some centres undefined) | – | – | – | – | < 30 | <1 | Activity [21]: 50%; inhibition [22]: < 20%; Activity [23]: No increase |
| CCOC(=O)[C@H](CCc1ccccc1)N[C@@H](CCCCNC(=O)c1ccc(Cl)c(S(N)(=O)=O)c1)C(=O)N(CC(=O)O)C1Cc2ccccc2C1.Cl | – | – | 100 | – | 50 | >3 | IC50 [12]: 40 nM; Activity [21]: 100%; Activity [24]: No increase |

Now from value to compound, other results behind:

| IC50 [2] [nM] | ACE inhibition [3] [%] | ACE inhibition [4] [%] | ACE inhibition [5] [%] | ACE inhibition [8] [%] | Structure (SMILES) | Duration [1] [h] | further results |
| --- | --- | --- | --- | --- | --- | --- | --- |
| 2700 | < 30 | 80 | – | – | C[C@H](N[C@@H](CCc1ccccc1)C(=O)O)C(=O)N(CC(=O)O)[C@H](C)C1Nc2cc(Cl)c(S(N)(=O)=O)cc2S(=O)(=O)N1 (some centres undefined) | 3 | – |
| – | – | 50 | 50 | – | CCOC(=O)C(CCc1ccccc1)N[C@@H](C)C(=O)N(C1Cc2ccccc2C1)[C@H](CCCCNC(=O)c1ccc(Cl)c(S(N)(=O)=O)c1)C(=O)O.Cl (some centres undefined) | 3 | Activity [14]: Natriuresis and diuresis |
| 680 | 50 | – | – | – | C[C@H](N[C@@H](CCc1ccccc1)C(=O)O)C(=O)N(Cc1ccccc1)[C@H](CCCCNc1cc(Cl)c(S(N)(=O)=O)cc1C(=O)O)C(=O)O.Cl | <1 | Activity [19]: < 30%; Activity [20]: No increase |
| 2200 | < 30 | < 30 | 80 | – | C[C@H](N[C@@H](CCc1ccccc1)C(=O)O)C(=O)N(CC(=O)O)CC(=O)Nc1cc(C(=O)O)cc(S(N)(=O)=O)c1Cl.Cl | 3 | Activity [20]: No increase |
